Laboratory results as given in US12060333B2 (Hoffmann-La Roche Inc., priority 2021, dated 2024).
Values joined by “and” are separate entries in the source; they are usually repeats but may differ in a detail not shown here. Equal entries are not always repeated. Where two headings read alike, the source gives them in different places.

What was measured:
SARS-CoV-2 3CLpro = SARS-CoV-2 3CLpro (Severe acute respiratory syndrome coronavirus 2, UniProt P0DTD1); test: biochemical
SARS-CoV 3CLpro = SARS-CoV 3CLpro (Severe acute respiratory syndrome coronavirus, UniProt P0C6X7); test: biochemical
MERS-CoV 3CLpro = MERS-CoV 3CLpro (Middle East respiratory syndrome-related coronavirus, UniProt K9N7C7); test: biochemical
HCoV-229E 3CLpro = HCoV-229E 3CLpro (Human coronavirus 229E, UniProt P0C6X1); test: HCoV-229E 3CLpro inhibition assay (FRET); assay type: biochemical; settings: protease 25 nM, FRET substrate 15 μM, pre-incubated 1 hr, read-out: 229E (activity in different coronaviruses)
Procedure: HCoV-229E 3CL^pro inhibition assay
The HCoV-229E 3CL^pro was expressed in E. coli BL21 (DE3) with the protein sequence of
For the HCoV-229E 3CL^pro assay, 2 μL of […] recombinant HCoV-229E 3CL protease were mixed with serial dilutions of each compound in 4 μL assay buffer containing 40 mM HEPES, pH=8.0, 1 mM CHAPS, 150 mM NaCl, 1 mM EDTA, 1 mM TCEP in a well of a 384-well plate and pre-incubated at rt for 1 hr. The custom-synthesized fluorogenic 3CL^pro peptide substrate used in the assay is as follows: FAM-[…]-TAMRA (peptide sequence according to SEQ ID NO: 3). This FRET-based substrate contains a FAM fluorophore attached at the N-terminus of a canonical 3CL^pro peptide substrate. The fluorophore is internally quenched by the TAMRA. The reaction was initiated by the addition of 10 μL of the substrate with a final concentration of 15 μM and each well was incubated at RT for 30 mins. The final concentration of the protease used at the assay was 25 nM and each compound was at a final concentration range of 100-0.0016 μM. The IC50 value which is the value causing 50% inhibition of the catalytic activity of the HCoV-229E 3CL^pro was calculated by four parameters equation analysis.

[1] = IC50 (μM), SARS-CoV-2 3CLPro assay
[2] = read-out: IC50 (μM), SARS-CoV-2 3CLPro assay

Compound | IC50 (HCoV-229E 3CLpro) [nM] | IC50 (SARS-CoV-2 3CLpro; [2]) [µM] | other results
CC(C)C[C@H](NC(=O)c1cc2ccccc2[nH]1)C(=O)NN(C[C@@H]1CCNC1=O)C(=O)CCl (single isomer, unassigned) [Example 51-A] | 17 |  | IC50 (SARS-CoV-2 3CLpro; [1]): 0.004 µM and 0.0027 µM; IC50 (SARS-CoV 3CLpro): 15 nM; IC50 (MERS-CoV 3CLpro): 60 nM
CC(C)C[C@H](NC(=O)c1cc2ccccc2[nH]1)C(=O)NN(CCC(N)=O)C(=O)CCl [Example 28, N-[(1S)-1-[[(3-amino-3-oxo-propyl)-(2-chloroacetyl)amino]carbamoyl]-3-methyl-butyl]-1H-indole-2-carboxamide] | 13 | 0.007 | IC50 (SARS-CoV 3CLpro): 16 nM; IC50 (MERS-CoV 3CLpro): 50 nM
CC(C)C[C@H](NC(=O)c1cc2cccnc2[nH]1)C(=O)NN(CCC(N)=O)C(=O)CCl [Example 44, N-[(1S)-1-[[(3-Amino-3-oxo-propyl)-(2-chloroacetyl)amino]carbamoyl]-3-methyl-butyl]-1H-pyrrolo[2,3-b]pyridine-2-carboxamide] |  | 0.017 | 
Cc1nc(C(=O)N[C@@H](CC(C)C)C(=O)NN(CCC(N)=O)C(=O)CCl)co1 [Example 45, N-[(1S)-1-[[(3-Amino-3-oxo-propyl)-(2-chloroacetyl)amino]carbamoyl]-3-methyl-butyl]-2-methyl-oxazole-4-carboxamide] |  | 0.046 | 
Cc1oncc1C(=O)N[C@@H](CC(C)C)C(=O)NN(CCC(N)=O)C(=O)CCl [Example 46, N-[(1S)-1-[[(3-Amino-3-oxo-propyl)-(2-chloroacetyl)amino]carbamoyl]-3-methyl-butyl]-5-methyl-isoxazole-4-carboxamide] |  | 0.07 | 
COc1cc2cc(C(=O)N[C@@H](CC(C)C)C(=O)NN(CCC(N)=O)C(=O)CCl)nc-2c[nH]1 [Example 47, N-[(1S)-1-[[(3-Amino-3-oxo-propyl)-(2-chloroacetyl)amino]carbamoyl]-3-methyl-butyl]-5-methoxy-6H-pyrrolo[2,3-c]pyridine-2-carboxamide] |  | 0.014 | 
Cc1cc(C(=O)N[C@@H](CC2CCCCC2)C(=O)NN(CCC(N)=O)C(=O)CCl)no1 [Example 48, N-[(1S)-2-[2-(3-amino-3-oxo-propyl)-2-(2-chloroacetyl)hydrazino]-1-(cyclohexylmethyl)-2-axo-ethyl]-5-methyl-isoxazole-3-carboxamide] |  | 0.004 | 
COc1cccc2[nH]c(C(=O)N[C@@H](CC(C)C)C(=O)NN(CCC(N)=O)C(=O)C(F)Cl)cc12 (stereo partly drawn) [Example 49, 4-Methoxy-N-[(1S)-1-[[(3-amino-3-oxo-propyl)-(2-chloro-2-fluoro-acetyl)amino]carbamoyl]-3-methyl-butyl]-1H-indole-2-carboxamide] |  | 0.015 | 
CNC(=O)CCN(NC(=O)[C@H](CC(C)C)N(C)C(=O)c1cc2ccccc2[nH]1)C(=O)CCl [Example 50, N-[(1S)-1-[[(2-Chloroacetyl)-[3-(methylamino)-3-oxo-propyl]amino]carbamoyl]-3-methyl-butyl]-N-methyl-1H-indole-2-carboxamide] |  | 0.074 | 
CC(C)C[C@H](NC(=O)c1cc2cnccc2[nH]1)C(=O)NN(CCC(N)=O)C(=O)CCl [Example 52, N-[(1S)-1-[[(3-amino-3-oxo-propyl)-(2-chloroacetyl)amino]carbamoyl]-3-methyl-butyl]-1H-pyrrolo[3,2-c]pyridine-2-carboxamide] |  | 0.014 | 
COc1cccc2[nH]c(C(=O)N[C@@H](CC3CCCCC3)C(=O)NN(CCC(N)=O)C(=O)[C@H](F)Cl)cc12 [Example 56-A, N-[(1S)-2-[2-(3-amino-3-oxo-propyl)-2-[(2R)-2-chloro-2-fluoro-acetyl]hydrazino]-1-(cyclohexylmethyl)-2-axo-ethyl]-4-methoxy-1H-indole-2-carboxamide] |  | 0.008 | 
COc1cccc2[nH]c(C(=O)N[C@@H](CC3CCCCC3)C(=O)NN(CCC(N)=O)C(=O)[C@H](F)Cl)cc12 [Example 56-B, N-[(1S)-2-[2-(3-amino-3-oxo-propyl)-2-[(2S)-2-chloro-2-fluoro-acetyl]hydrazino]-1-(cyclohexylmethyl)-2-axo-ethyl]-4-methoxy-1H-indole-2-carboxamide] |  | 0.003 | 
NC(=O)CCN(NC(=O)[C@H](CC1CCCCC1)NC(=O)c1cc2ccccc2[nH]1)C(=O)[C@@H](F)Cl [Example 59-A, N-[(1S)-2-[2-(3-amino-3-oxo-propyl)-2-[(2S)-2-chloro-2-fluoro-acetyl]hydrazino]-1-(cyclohexylmethyl)-2-axo-ethyl]-1H-indole-2-carboxamide] |  | 0.023 | 
NC(=O)CCN(NC(=O)[C@H](CC1CCCCC1)NC(=O)c1cc2ccccc2[nH]1)C(=O)[C@H](F)Cl [Example 59-B, N-[(1S)-2-[2-(3-amino-3-oxo-propyl)-2-[(2R)-2-chloro-2-fluoro-acetyl]hydrazino]-1-(cyclohexylmethyl)-2-axo-ethyl]-1H-indole-2-carboxamide] |  | 0.005 | 
Cc1cc(C(=O)N[C@@H](CC2(C)CC2)C(=O)NN(C[C@@H]2CCNC2=O)C(=O)[C@H](F)Cl)no1 [Example 70, N-[(1S)-2-[2-[(2R)-2-chloro-2-fluoro-acetyl]-2-[[(3S)-2-axopyrrolidin-3-yl]methyl]hydrazino]-1-[(1-methylcyclopropyl)methyl]-2-axo-ethyl]-5-methyl-isoxazole-3-carboxamide] | 24 |  | IC50 (SARS-CoV-2 3CLpro; [1]): 0.059 µM; IC50 (SARS-CoV 3CLpro): 94 nM; IC50 (MERS-CoV 3CLpro): 54 nM
Cc1cc(C(=O)N[C@@H](CC23CC(C2)C3)C(=O)NN(C[C@@H]2CCNC2=O)C(=O)[C@H](F)Cl)no1 [Example 71, N-[(1S)-1-(1-bicyclo[1.1.1]pentanylmethyl)-2-[2-[(2R)-2-chloro-2-fluoro-acetyl]-2-[[(3S)-2-axopyrrolidin-3-yl]methyl]hydrazino]-2-axo-ethyl]-5-methyl-isoxazole-3-carboxamide] | 25 |  | IC50 (SARS-CoV-2 3CLpro; [1]): 0.11 µM
CC(C)(C)C[C@H](NC(=O)c1cnccn1)C(=O)NN(CCC(N)=O)C(=O)C(F)Cl (stereo partly drawn) [Example 78, N-[rac-(1S)-1-[[(3-amino-3-oxo-propyl)-(2-chloro-2-fluoro-acetyl)amino]carbamoyl]-3,3-dimethyl-butyl]pyrazine-2-carboxamide] |  |  | IC50 (SARS-CoV-2 3CLpro; [1]): 0.25 µM
CC(C)C[C@H](NC(=O)c1cc2ncccc2[nH]1)C(=O)NN(CCC(N)=O)C(=O)C(F)Cl (stereo partly drawn) [Example 91, N-[(1S)-1-[[(3-amino-3-oxo-propyl)-(2-chloro-2-fluoro-acetyl)amino]carbamoyl]-3-methyl-butyl]-1H-pyrrolo[3,2-b]pyridine-2-carboxamide] |  | 0.038 | 
CC1(C[C@H](NC(=O)c2cc(C(F)(F)F)on2)C(=O)NN(C[C@@H]2CCNC2=O)C(=O)[C@H](F)Cl)CC1 [Example 98, N—((S)-1-(2-((R)-2-Chloro-2-fluoroacetyl)-2-(((S)-2-axopyrrolidin-3-yl)methyl)hydrazineyl)-3-(1-methylcyclopropyl)-1-oxopropan-2-yl)-5-(trifluoromethyl)isoxazole-3-carboxamide] |  | 0.017 | 
O=C(N[C@@H](CC12CC(C1)C2)C(=O)NN(C[C@@H]1CCNC1=O)C(=O)[C@H](F)Cl)c1cc(C(F)(F)F)on1 [Example 99, N-[(1S)-1-(1-bicyclo[1.1.1]pentanylmethyl)-2-[2-[(2R)-2-chloro-2-fluoro-acetyl]-2-[[(3S)-2-axopyrrolidin-3-yl]methyl]hydrazino]-2-axo-ethyl]-5-(trifluoromethyl)isoxazole-3-carboxamide] | 24 | 0.071 | 
CC1(C[C@H](NC(=O)c2cc(C(F)F)on2)C(=O)NN(C[C@@H]2CCNC2=O)C(=O)[C@H](F)Cl)CC1 [Example 100, N-[(1S)-2-[2-[(2R)-2-chloro-2-fluoro-acetyl]-2-[[(3S)-2-axopyrrolidin-3-yl]methyl]hydrazino]-1-[(1-methylcyclopropyl)methyl]-2-axo-ethyl]-5-(difluoromethyl)isoxazole-3-carboxamide] | 28 |  | IC50 (SARS-CoV-2 3CLpro; [1]): 0.024 µM; IC50 (SARS-CoV 3CLpro): 31 nM; IC50 (MERS-CoV 3CLpro): 94 nM
Cc1cc(C(=O)N[C@@H](CCC(C)C)C(=O)NN(C[C@@H]2CCNC2=O)C(=O)[C@H](F)Cl)no1 [Example 101, N-[(1S)-1-[[[(2R)-2-chloro-2-fluoro-acetyl]-[[(3S)-2-axopyrrolidin-3-yl]methyl]amino]carbamoyl]-4-methyl-pentyl]-5-methyl-isoxazole-3-carboxamide] | 74 | 0.09 | IC50 (SARS-CoV 3CLpro; read-out: SARS (activity in different coronaviruses)): 160 nM; IC50 (MERS-CoV 3CLpro): 320 nM
N-[(1S)-1-[[(3-amino-3-oxo-propyl)-[(2R)-2-chloro-2-fluoro-acetyl]amino]carbamoyl]-3-methyl-butyl]-1H-pyrrolo[2,3-c]pyridine-2-carboxamide and N-[(1S)-1-[[(3-amino-3-oxo-propyl)-[(2S)-2-chloro-2-fluoro-acetyl]amino]carbamoyl]-3-methyl-butyl]-1H-pyrrolo[2,3-c]pyridine-2-carboxamide [Example 88] |  | 0.013 | 
